# In US20100041089A1, “IMPROVED METHOD FOR DETECTING CHEMICAL […]” (priority 2006, published 2010):
# Test system: yeast genes (expressed mRNA)
# Test: DNA chip measurement of expressed mRNA of yeast genes after culture with a toxic chemical substance
# Type: cell-based, Saccharomyces cerevisiae S288C
# Settings: for level of expressed mRNA in the presence of chemical substance / level in the absence of chemical substance: cultured two hours with the chemical substance; for The level of expressed mRNA in the presence of chemical substance/The level of expressed mRNA in the absence of chemical substance: cultured two hours with substance
# Summary of the method: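 Yeast S288C, YPD 25° C; toxicant at log phase, 2 h, sublethal growth-inhibiting conc.; no-chemical control. Hot SDS/acetate RNA extraction, oligo-dT mRNA, Cy3/Cy5-dUTP RT. Whole-genome chip, 65° C >12 h. Readout: treated/control intensity ratio, ≥2 significant.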
smiles,measurement,setting,value
"[Cl][Pb][Cl] [(4), PbCl2]",level of expressed mRNA in the presence of chemical substance / level in the absence of chemical substance,yeast gene YJL097W,1.6
same,The level of expressed mRNA in the presence of chemical substance/The level of expressed mRNA in the absence of chemical substance,yeast gene YJL151C,1.2
same,The level of expressed mRNA in the presence of chemical substance/The level of expressed mRNA in the absence of chemical substance,yeast gene YJL152W,1.3
same,The level of expressed mRNA in the presence of chemical substance/The level of expressed mRNA in the absence of chemical substance,yeast gene YJL161W,4.6
same,The level of expressed mRNA in the presence of chemical substance/The level of expressed mRNA in the absence of chemical substance,yeast gene YJL171C,1.4
same,The level of expressed mRNA in the presence of chemical substance/The level of expressed mRNA in the absence of chemical substance,yeast gene YJR008W,1.7
same,level of expressed mRNA in the presence of chemical substance / level in the absence of chemical substance,yeast gene YJR030C,1.2
same,The level of expressed mRNA in the presence of chemical substance/The level of expressed mRNA in the absence of chemical substance,yeast gene YJR054W,0.9
same,level of expressed mRNA in the presence of chemical substance / level in the absence of chemical substance,yeast gene YKL051W,0.8
same,The level of expressed mRNA in the presence of chemical substance/The level of expressed mRNA in the absence of chemical substance,yeast gene YKL071W,2.8
same,The level of expressed mRNA in the presence of chemical substance/The level of expressed mRNA in the absence of chemical substance,yeast gene YKL086W,2.6
same,level of expressed mRNA in the presence of chemical substance / level in the absence of chemical substance,yeast gene YKL097C,1.4
same,level of expressed mRNA in the presence of chemical substance / level in the absence of chemical substance,yeast gene YKL100C,1.6
same,The level of expressed mRNA in the presence of chemical substance/The level of expressed mRNA in the absence of chemical substance,yeast gene YKL151C,2.5
same,The level of expressed mRNA in the presence of chemical substance/The level of expressed mRNA in the absence of chemical substance,yeast gene YKL153W,0.7
same,The level of expressed mRNA in the presence of chemical substance/The level of expressed mRNA in the absence of chemical substance,yeast gene YKL195W,1.1
same,level of expressed mRNA in the presence of chemical substance / level in the absence of chemical substance,yeast gene YKR040C,2.9
same,The level of expressed mRNA in the presence of chemical substance/The level of expressed mRNA in the absence of chemical substance,yeast gene YKR091W,3.5
same,The level of expressed mRNA in the presence of chemical substance/The level of expressed mRNA in the absence of chemical substance,yeast gene YLR054C,2.4
same,The level of expressed mRNA in the presence of chemical substance/The level of expressed mRNA in the absence of chemical substance,yeast gene YLR149C,2.3
same,The level of expressed mRNA in the presence of chemical substance/The level of expressed mRNA in the absence of chemical substance,yeast gene YLR152C,0.9
same,The level of expressed mRNA in the presence of chemical substance/The level of expressed mRNA in the absence of chemical substance,yeast gene YLR194C,3.6
same,level of expressed mRNA in the presence of chemical substance / level in the absence of chemical substance,yeast gene YLR226W,1.0
same,The level of expressed mRNA in the presence of chemical substance/The level of expressed mRNA in the absence of chemical substance,yeast gene YLR324W,1.0
same,level of expressed mRNA in the presence of chemical substance / level in the absence of chemical substance,yeast gene YLR338W,1.1
same,The level of expressed mRNA in the presence of chemical substance/The level of expressed mRNA in the absence of chemical substance,yeast gene YLR350W,2.3
same,The level of expressed mRNA in the presence of chemical substance/The level of expressed mRNA in the absence of chemical substance,yeast gene YLR387C,0.6
same,level of expressed mRNA in the presence of chemical substance / level in the absence of chemical substance,yeast gene YLR392C,1.9
same,level of expressed mRNA in the presence of chemical substance / level in the absence of chemical substance,yeast gene YLR427W,0.5
same,The level of expressed mRNA in the presence of chemical substance/The level of expressed mRNA in the absence of chemical substance,yeast gene YLR460C,1.1
same,level of expressed mRNA in the presence of chemical substance / level in the absence of chemical substance,yeast gene YML013W,0.6
same,level of expressed mRNA in the presence of chemical substance / level in the absence of chemical substance,yeast gene YML029W,1.0
same,level of expressed mRNA in the presence of chemical substance / level in the absence of chemical substance,yeast gene YML041C,1.0
same,level of expressed mRNA in the presence of chemical substance / level in the absence of chemical substance,yeast gene YML079W,1.5
same,The level of expressed mRNA in the presence of chemical substance/The level of expressed mRNA in the absence of chemical substance,yeast gene YML117W,1.6
same,The level of expressed mRNA in the presence of chemical substance/The level of expressed mRNA in the absence of chemical substance,yeast gene YMR009W,1.9
same,The level of expressed mRNA in the presence of chemical substance/The level of expressed mRNA in the absence of chemical substance,yeast gene YMR067C,0.4
same,level of expressed mRNA in the presence of chemical substance / level in the absence of chemical substance,yeast gene YMR068W,1.5
same,level of expressed mRNA in the presence of chemical substance / level in the absence of chemical substance,yeast gene YMR071C,1.9
same,The level of expressed mRNA in the presence of chemical substance/The level of expressed mRNA in the absence of chemical substance,yeast gene YMR090W,3.5
same,The level of expressed mRNA in the presence of chemical substance/The level of expressed mRNA in the absence of chemical substance,yeast gene YMR095C,1.0
same,The level of expressed mRNA in the presence of chemical substance/The level of expressed mRNA in the absence of chemical substance,yeast gene YMR097C,1.6
same,The level of expressed mRNA in the presence of chemical substance/The level of expressed mRNA in the absence of chemical substance,yeast gene YMR102C,0.8
same,The level of expressed mRNA in the presence of chemical substance/The level of expressed mRNA in the absence of chemical substance,yeast gene YMR107W,18.4
same,level of expressed mRNA in the presence of chemical substance / level in the absence of chemical substance,yeast gene YMR160W,1.2
same,The level of expressed mRNA in the presence of chemical substance/The level of expressed mRNA in the absence of chemical substance,yeast gene YMR180C,1.3
same,The level of expressed mRNA in the presence of chemical substance/The level of expressed mRNA in the absence of chemical substance,yeast gene YMR184W,1.1
same,The level of expressed mRNA in the presence of chemical substance/The level of expressed mRNA in the absence of chemical substance,yeast gene YMR191W,1.6
same,The level of expressed mRNA in the presence of chemical substance/The level of expressed mRNA in the absence of chemical substance,yeast gene YMR295C,1.6
same,The level of expressed mRNA in the presence of chemical substance/The level of expressed mRNA in the absence of chemical substance,yeast gene YMR316W,1.9
same,level of expressed mRNA in the presence of chemical substance / level in the absence of chemical substance,yeast gene YNL026W,0.8
same,The level of expressed mRNA in the presence of chemical substance/The level of expressed mRNA in the absence of chemical substance,yeast gene YNL044W,1.3
